This is an account of results in article PMC11840605, “Crystallographic and Thermodynamic Evidence of Negative Coupling in the Flavin-Dependent Tryptophan Halogenases AbeH and BorH” (ACS Omega, 2025).

In the test the target is AbeH (uncultured bacterium, UniProt F6LWA5). The test can be described thus: In vitro halogenation of Trp by AbeH, 1 h reaction, RP-HPLC/MS. The format is biochemical, uncultured soil actinomycetes. The protocol:
In vitro halogenation reactions contained 7 μM AbeH, 13 μM holo-AbeF (∼20% saturated with FAD), 2.5 mM NADH, 0.5 mM Trp, 50 mM NaCl or NaBr in 10 mM Tris-HCl pH 8.2 in a final volume of 100 μL. Reactions were initiated by addition of NADH and incubated with 200 rpm shaking at 37 °C for 1 h. Reactions were stopped by heating to 95 °C for 10 min followed by centrifugation at 10,000g for 5 min. Reaction mixtures were analyzed by RP-HPLC using a Kromasil C18 RP-analytical column (100 Å pore size, 4.6 × 250 mm) mounted on a Waters 2695 HPLC. Separation used a 14 min gradient from 5% B to 100% B (Solvent A = H2O/CH3CN 95:5, 0.1% TFA; Solvent B = H2O/CH3CN 5/95, 0.1% TFA) with flow rate 0.6 mL/min. Trp, 5-Cl-Trp, and 5-Br-Trp peaks were monitored with absorbance at 280 nm and retention times and yields were analyzed with using retention times and peak areas from standard curves of authentic standards of Trp (ACROS Organics), 5-Cl-Trp (Santa Cruz Biotechnology) and 5-Br-Trp (Santa Cruz Biotechnology). RP-HPLC purified 5-Cl-Trp and 5-Br-Trp peaks from in vitro halogenation reactions were analyzed on a Waters SYNAPT HDMS mass spectrometer using positive ion-mode ESI-MS with leucine enkephalin as internal standard.
Figure S2: AbeH chlorinates and brominates Trp in vitro.
In vitro halogenation reactions were performed with […], […], 2.5 mM NADH, 50 mM NaCl or NaBr in 10 mM Tris-HCl pH 8.2 at 37 °C shaking at 200 rpm with final volume of […]. Standards and reactions were analyzed on a Kromasil C18 column (100 Å pore size, 4.6 x 250 mm) mounted on a Waters HPLC using a 14 min gradient from 5% -100% B (Solvent A:5% CH3CN+0.1% TFA; Solvent B:95% CH3CN+0.1% TFA) with flow rate 0.6 mL/min using 90 µL injections. Baseline subtracted peak integration was performed on Empower software (Waters). (A) Trp standard (tR = 10.3 min). (B) 5-Cl-Trp standard (tR =11.3 min). (C) 5-Br-Trp standard (tR = 11.4 min). (D) 60 min AbeH in vitro chlorination reaction of 0.5 mM Trp (tR = 11.3 min, 100% conversion to 5-Cl-Trp). […]

Chain of AbeH (F6LWA5 entry or part of it): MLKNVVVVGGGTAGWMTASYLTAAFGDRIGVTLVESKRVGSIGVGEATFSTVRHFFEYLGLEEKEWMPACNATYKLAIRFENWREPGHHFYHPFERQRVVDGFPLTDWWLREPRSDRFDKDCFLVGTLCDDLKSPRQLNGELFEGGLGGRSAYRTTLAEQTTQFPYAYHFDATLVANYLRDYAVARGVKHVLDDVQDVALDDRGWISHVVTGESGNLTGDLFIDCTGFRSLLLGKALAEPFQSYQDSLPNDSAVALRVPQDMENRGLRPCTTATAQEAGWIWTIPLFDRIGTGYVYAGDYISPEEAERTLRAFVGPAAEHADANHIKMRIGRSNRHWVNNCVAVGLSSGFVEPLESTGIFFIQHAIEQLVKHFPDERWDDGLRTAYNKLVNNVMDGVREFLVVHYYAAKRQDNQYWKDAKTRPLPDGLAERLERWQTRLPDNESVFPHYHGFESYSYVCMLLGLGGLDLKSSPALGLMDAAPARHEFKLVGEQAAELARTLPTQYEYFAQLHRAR

For the compound `N[C@@H](Cc1c[nH]c2ccccc12)C(=O)O` [Tryptophan, L-tryptophan], the “Conversion to 5-Br-Trp” value (60 min AbeH bromination reaction of 0.5 mM Trp, 50 mM NaBr) is ~ 80%. Further, the “Conversion to 5-Cl-Trp” value (60 min AbeH chlorination reaction of 0.5 mM Trp, 50 mM NaCl) was determined as 100%. For the same compound, for the setting “NaI”, the “Product formation by AbeH when NaCl was replaced with NaI” value is on record as “No product peak was observed”.
